Measurements from patent publication US12358886B2, “Heterocyclic compounds for use in the treatment of cancer” (Artios Pharma Limited, priority 2019, dated 2025).
Read-outs that look alike come from different tables or passages of the source.

Molecular target: Polθ protein (amino acids 2-2590) (Homo sapiens, UniProt O75417)
Test: Polθ full length enzyme potency assay (PicoGreen)
Details: full length N-His, C-term FLAG tagged Polθ, PicoGreen fluorescence, 12 point concentration response

Chain of Polθ protein (amino acids 2-2590) (O75417 2-2590): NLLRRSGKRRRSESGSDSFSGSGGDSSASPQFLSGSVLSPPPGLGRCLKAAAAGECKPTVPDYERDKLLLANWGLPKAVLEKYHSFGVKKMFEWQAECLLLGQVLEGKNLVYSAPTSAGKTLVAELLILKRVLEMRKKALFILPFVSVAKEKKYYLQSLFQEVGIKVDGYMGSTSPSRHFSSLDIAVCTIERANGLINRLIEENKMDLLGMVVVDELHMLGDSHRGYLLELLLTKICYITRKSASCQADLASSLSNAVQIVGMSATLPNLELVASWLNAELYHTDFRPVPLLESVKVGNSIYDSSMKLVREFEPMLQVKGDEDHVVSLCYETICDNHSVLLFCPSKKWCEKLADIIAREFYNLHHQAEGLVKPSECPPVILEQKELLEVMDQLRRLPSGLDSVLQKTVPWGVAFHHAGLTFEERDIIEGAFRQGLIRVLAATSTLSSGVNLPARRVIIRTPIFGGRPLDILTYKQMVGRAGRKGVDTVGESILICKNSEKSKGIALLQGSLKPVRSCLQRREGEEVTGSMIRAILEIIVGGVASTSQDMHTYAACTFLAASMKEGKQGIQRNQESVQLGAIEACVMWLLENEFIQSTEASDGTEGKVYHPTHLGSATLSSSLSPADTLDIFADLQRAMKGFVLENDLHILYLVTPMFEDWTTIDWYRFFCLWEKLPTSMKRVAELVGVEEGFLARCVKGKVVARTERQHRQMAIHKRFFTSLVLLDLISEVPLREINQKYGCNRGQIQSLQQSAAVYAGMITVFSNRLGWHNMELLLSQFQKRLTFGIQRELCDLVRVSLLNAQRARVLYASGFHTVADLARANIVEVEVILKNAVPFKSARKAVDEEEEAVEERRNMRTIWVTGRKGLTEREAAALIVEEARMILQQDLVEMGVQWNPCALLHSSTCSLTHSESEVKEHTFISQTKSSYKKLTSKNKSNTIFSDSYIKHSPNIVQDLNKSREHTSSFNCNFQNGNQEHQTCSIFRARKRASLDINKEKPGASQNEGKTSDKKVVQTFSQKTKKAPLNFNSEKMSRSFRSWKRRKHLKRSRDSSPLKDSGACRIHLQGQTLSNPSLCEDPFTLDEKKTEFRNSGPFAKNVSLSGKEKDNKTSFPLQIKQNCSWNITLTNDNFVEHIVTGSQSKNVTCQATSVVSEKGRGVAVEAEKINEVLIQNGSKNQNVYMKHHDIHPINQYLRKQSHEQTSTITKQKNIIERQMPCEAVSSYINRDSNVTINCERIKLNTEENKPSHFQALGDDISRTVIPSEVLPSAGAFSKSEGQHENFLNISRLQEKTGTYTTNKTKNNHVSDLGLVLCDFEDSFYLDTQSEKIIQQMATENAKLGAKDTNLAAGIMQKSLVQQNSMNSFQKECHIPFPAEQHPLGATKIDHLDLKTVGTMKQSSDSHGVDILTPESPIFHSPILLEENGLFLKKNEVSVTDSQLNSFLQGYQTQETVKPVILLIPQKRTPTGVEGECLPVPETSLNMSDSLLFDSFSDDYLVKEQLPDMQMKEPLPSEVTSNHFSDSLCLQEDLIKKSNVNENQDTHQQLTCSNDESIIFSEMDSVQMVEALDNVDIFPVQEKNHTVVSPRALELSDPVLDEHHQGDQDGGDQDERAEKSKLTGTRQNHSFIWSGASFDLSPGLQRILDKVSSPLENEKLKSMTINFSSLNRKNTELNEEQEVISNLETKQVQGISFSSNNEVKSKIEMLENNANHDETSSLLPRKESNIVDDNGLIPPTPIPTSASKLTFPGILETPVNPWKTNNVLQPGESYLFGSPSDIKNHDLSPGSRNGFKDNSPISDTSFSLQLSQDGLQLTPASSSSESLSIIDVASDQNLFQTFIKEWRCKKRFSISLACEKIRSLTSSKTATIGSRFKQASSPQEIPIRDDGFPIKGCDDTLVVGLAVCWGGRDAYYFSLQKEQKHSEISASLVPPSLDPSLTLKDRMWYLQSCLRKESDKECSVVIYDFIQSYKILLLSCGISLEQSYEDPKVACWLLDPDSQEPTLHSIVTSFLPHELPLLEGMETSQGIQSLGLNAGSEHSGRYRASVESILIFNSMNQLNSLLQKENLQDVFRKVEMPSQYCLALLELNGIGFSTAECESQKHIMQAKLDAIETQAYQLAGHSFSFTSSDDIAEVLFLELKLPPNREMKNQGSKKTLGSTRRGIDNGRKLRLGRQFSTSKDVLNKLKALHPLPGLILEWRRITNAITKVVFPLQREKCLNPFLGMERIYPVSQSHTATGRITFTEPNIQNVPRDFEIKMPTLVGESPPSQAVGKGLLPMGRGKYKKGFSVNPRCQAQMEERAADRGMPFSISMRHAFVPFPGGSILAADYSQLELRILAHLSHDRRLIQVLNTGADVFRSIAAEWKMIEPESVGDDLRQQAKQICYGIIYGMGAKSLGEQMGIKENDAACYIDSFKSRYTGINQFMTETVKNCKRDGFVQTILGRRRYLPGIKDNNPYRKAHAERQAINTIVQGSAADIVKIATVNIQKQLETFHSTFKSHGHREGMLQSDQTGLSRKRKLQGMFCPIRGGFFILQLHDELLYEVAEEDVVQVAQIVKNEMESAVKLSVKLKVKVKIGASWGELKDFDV

Structure (SMILES)	IC50 (Polθ IC50 (nM)) [nM]	IC50 (read-out: Polθ IC50) [nM]
Cc1cc(C(F)(F)F)c(C#N)c(N2CCC[C@H]2C(=O)N(C)c2ccc3c(n2)N(C)CCO3)n1 [Example 245, (S)-1-(3-Cyano-6-methyl-4-(trifluoromethyl)pyridin-2-yl)-N-methyl-N-(4-methyl-3,4-dihydro-2H-pyrido[3,2-b][1,4]oxazin-6-yl)pyrrolidine-2-carboxamide]	74	
CO[C@H]1C[C@@H](C(=O)N(C)c2cccc(C)c2)N(c2nc(C)cc(C(F)(F)F)c2C#N)C1 [Example 36, (2S,4S)-1-(3-Cyano-6-methyl-4-(trifluoromethyl)pyridin-2-yl)-4-methoxy-N-methyl-N-(m-tolyl)pyrrolidine-2-carboxamide]	48	
CCN(C(=O)[C@@H]1C[C@H](N(C)[C@@H]2CCC[C@H]2O)CN1c1cc(C(F)(F)F)cc(C)n1)c1ccc(F)c(F)c1 [Example 141, (2S,4S)-N-(3,4-Difluorophenyl)-N-ethyl-4-(((1R,2R)-2-hydroxycyclopentyl)(methyl)amino)-1-(6-methyl-4-(trifluoromethyl)pyridin-2-yl)pyrrolidine-2-carboxamide]	56	
Cc1cc(C(F)(F)F)cc(N2C(=O)N(CCN3CCCC3CO)C[C@H]2C(=O)N(C)c2ccc(F)c(Cl)c2)n1 (single isomer, unassigned; isomer 2) [Example 199]	32	
Cc1cc(C(F)(F)F)cc(N2C(=O)OC[C@H]2C(=O)N(C)c2cccc(Cl)c2)n1 [Example 87, (S)-N-(3-Chlorophenyl)-N-methyl-3-(6-methyl-4-(trifluoromethyl)pyridin-2-yl)-2-oxooxazolidine-4-carboxamide]		15
Cc1cc(C)c(C#N)c(N2C[C@@H](O)C[C@H]2C(=O)N(C)c2ccc(F)c(C(F)(F)F)c2)n1 [Example 10, (2S,4S)-1-(3-Cyano-4,6-dimethylpyridin-2-yl)-N-(4-fluoro-3-(trifluoromethyl)phenyl)-4-hydroxy-N-methylpyrrolidine-2-carboxamide]	316	
Cc1cc(C(F)(F)F)c(C#N)c(N2C[C@@H](O)C[C@H]2C(=O)N(C)c2ccc(Cl)c(F)c2)n1 [Example 18, (2S,4S)-N-(4-Chloro-3-fluorophenyl)-1-(3-cyano-6-methyl-4-(trifluoromethyl)pyridin-2-yl)-4-hydroxy-N-methyl-pyrrolidine-2-carboxamide]	33	
Cc1cc(C(F)(F)F)cc(N2C(=O)OC[C@H]2C(=O)N(C)c2ccc3cccnc3c2)n1 [Example 178, (S)—N-Methyl-3-(6-methyl-4-(trifluoromethyl)pyridin-2-yl)-2-oxo-N-(quinolin-7-yl)oxazolidine-4-carboxamide]	833	
CCN(C(=O)[C@@H]1C[C@H](N[C@H]2CCC[C@H]2O)CN1c1cc(C(F)(F)F)cc(C)n1)c1ccc(F)c(F)c1 [Example 134, (2S,4S)-N-(3,4-Difluorophenyl)-N-ethyl-4-(((1S,2R)-2-hydroxycyclopentyl)amino)-1-(6-methyl-4-(trifluoromethyl)pyridin-2-yl)pyrrolidine-2-carboxamide]	124	
CCN(C(=O)[C@H]1C[C@@H](N2CCNCC2)CN1c1nc(C)cc(C)c1C#N)c1cccc(C)c1 (stereo in doubt) [Example 50, (2R,4R)-1-(3-Cyano-4,6-dimethylpyridin-2-yl)-N-ethyl-4-(piperazin-1-yl)-N-(m-tolyl)-pyrrolidine-2-carboxamide]	232	
Cc1cc(C(F)(F)F)cc(N2C(=O)OC[C@H]2C(=O)N(C)c2ccc3cn[nH]c3c2)n1 [Example 174, (S)—N-(1H-Indazol-6-yl)-N-methyl-3-(6-methyl-4-(trifluoromethyl)pyridin-2-yl)-2-oxooxazolidine-4-carboxamide]	158	
Cc1cc(C(F)(F)F)cc(N2C(=O)[C@@H](O)C[C@H]2C(=O)N(C)c2ccc(F)c(Cl)c2)n1 [Example 74, (2S,4S)—N-(3-Chloro-4-fluorophenyl)-4-hydroxy-N-methyl-1-(6-methyl-4-(trifluoromethyl)-pyridin-2-yl)-5-oxopyrrolidine-2-carboxamide]		25

Continued by falling IC50 (Polθ IC50 (nM)), values first:

IC50 (Polθ IC50 (nM)) [nM]	IC50 (read-out: Polθ IC50) [nM]	Structure (SMILES)
24		Cc1cc(C(F)(F)F)cc(N2C(=O)N(CCCN(C)C)C[C@H]2C(=O)N(C)c2ccc(F)c(Cl)c2)n1 [Example 183, (S)-N-(3-Chloro-4-fluorophenyl)-1-(3-(dimethylamino)propyl)-N-methyl-3-(6-methyl-4-(trifluoromethyl)pyridin-2-yl)-2-oxoimidazolidine-4-carboxamide]
18		COc1cc(N(C)C(=O)[C@@H]2COC(=O)N2c2cc(C(F)(F)F)cc(C)n2)ccc1C [Example 92, (S)-N-(3-Methoxy-4-methylphenyl)-N-methyl-3-(6-methyl-4-(trifluoromethyl)pyridin-2-yl)-2-oxooxazolidine-4-carboxamide]
16		Cc1cc(C(F)(F)F)cc(N2C(=O)N(CC3CN(C)C(=O)O3)C[C@H]2C(=O)N(C)c2ccc(F)c(Cl)c2F)n1 (single isomer, unassigned; isomer 2) [Example 230]
16		Cc1cc(C(F)(F)F)cc(N2C(=O)OC[C@H]2C(=O)N(C)c2ccc(Cl)c(Cl)c2)n1 [Example 89, (S)-N-(3,4-Dichlorophenyl)-N-methyl-3-(6-methyl-4-(trifluoromethyl)-pyridin-2-yl)-2-oxooxazolidine-4-carboxamide]
11		Cc1cc(C(F)(F)F)c(C#N)c(N2C[C@@H](O)C[C@H]2C(=O)N(C)c2ccc(F)c(C)c2)n1 [Example 6, (2S,4S)-1-(3-Cyano-6-methyl-4-(trifluoromethyl)pyridin-2-yl)-N-(4-fluoro-3-methylphenyl)-4-hydroxy-N-methylpyrrolidine-2-carboxamide]
11		CCc1ccc(N(C)C(=O)[C@@H]2COC(=O)N2c2cc(C(F)(F)F)cc(C)n2)c(F)c1 [Example 112, (S)—N-(4-Ethyl-2-fluorophenyl)-N-methyl-3-(6-methyl-4-(trifluoromethyl)pyridin-2-yl)-2-oxooxazolidine-4-carboxamide]
8		Cc1cc(C(F)(F)F)cc(N2C(=O)[C@@H](O)[C@@H](O)[C@H]2C(=O)N(C)c2ccc(F)c(Cl)c2)n1 [Example 65, (2S,3S,4S)—N-(3-Chloro-4-fluorophenyl)-3,4-dihydroxy-N-methyl-1-(6-methyl-4-(trifluoromethyl)pyridin-2-yl)-5-oxopyrrolidine-2-carboxamide]
7		Cc1cc(C(F)(F)F)cc(N2C(=O)[C@@H](O)[C@@H](O)[C@H]2C(=O)N(C)c2ccc3cc[nH]c3n2)n1 [Example 166, (2S,3S,4S)-3,4-Dihydroxy-N-methyl-1-(6-methyl-4-(trifluoromethyl)pyridin-2-yl)-5-oxo-N-(1H-pyrrolo[2,3-b]pyridin-6-yl)pyrrolidine-2-carboxamide]
6		Cc1cc(C(F)(F)F)cc(N2C(=O)OC[C@H]2C(=O)N(C)c2ccc(Cl)c(C)c2)n1 [Example 84, (S)—N-(4-Chloro-3-methylphenyl)-N-methyl-3-(6-methyl-4-(trifluoromethyl)pyridin-2-yl)-2-oxooxazolidine-4-carboxamide]
6		Cc1cc(C(F)(F)F)cc(N2C(=O)NC[C@H]2C(=O)N(C)c2ccc3c(F)c[nH]c3n2)n1 [Example 239, (S)—N-(3-Fluoro-1H-pyrrolo[2,3-b]pyridin-6-yl)-N-methyl-3-(6-methyl-4-(trifluoromethyl)pyridin-2-yl)-2-oxoimidazolidine-4-carboxamide]
